In general, IC50 refers to the midpoint of a concentration-inhibition curve.

The target in assay [1] is T1, IDO1 (Homo sapiens, UniProt P14902). Briefly: IDO1 Cellular Assay in Hela Cells Stimulated with IFNγ. The class given is cell-based. As to conditions: IFNγ 100 ng/mL, 300 uM L-tryptophan, about 48 hours, fluorescence readout, read-out: IDO1 HELA Cell Assay, IC50. Put shortly:
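HeLa cells stimulated with 100 ng/mL IFNγ, supplemented with 300 uM L-tryptophan, incubated 48 h at 37° C with ten 3-fold compound dilutions. Unstimulated cells served as Max-E control. Kynurenine detected by fluorescence (ex 400/em 510 nm) after overnight methyl isonipecotate reaction; IC50 by four-parameter logistic fit.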

Assay [2] concerns the target T1, IDO1. Briefly: IDO1 Human whole blood Assay. Also on record: Human whole blood was drawn in sodium heparin coated tubes from healthy internal donors; from tissue; host or cells: Human whole blood from healthy donors, stimulated with LPS and IFNγ. The class given is cell-based. As to conditions: LPS and IFNγ 100 ng/mL, 18 h, kynurenine by LC/MS/MS. How it is done: Compounds to be tested were serially diluted in ten 3-fold steps in DMSO starting from 10 mM. 3 μL of compound dilutions or DMSO alone were then dispensed from the dilution plate into a polypropylene 96-well assay plate containing 97 μL of RPMI using an Echo 555 acoustic liquid handler (Labcyte). LPS and IFNγ was prepared in RPMI to a 10× of final conc. (1000 ng/mL), final concentration is 100 ng/mL.
Human whole blood was drawn in sodium heparin coated tubes from healthy internal donors. Two hundred forty μL of blood was transferred to each of the wells of a v-bottom 96 well plate. Thirty μL of compound was transferred from intermediate dilution plate, and incubated for 15 min. Thirty μL from stimulants was then transferred to blood and mixed thoroughly. Plate was covered with breathable membrane and incubated at 37° C. for overnight (18 h).
On day 2 isotope labeled standard of kynurenine and tryptophan was made in water at 10× concentration and 30 μL was added to the blood at 3 μM final concentration. The assay plates were centrifuged at 300×G for 10 min with no brake to separate plasma from red blood cells. Sixty μL of plasma samples was removed without disturbing red blood cells. Plasma was diluted with RPMI in 1:1 ratio and proteins were precipitated out with two volume of acetonitrile. The plates were centrifuged at 4000×G for 60 min. Twenty μL of supernatant was carefully transferred to a 384 well plate containing 40 μL of 0.1% formic acid in water and analyzed by LC/MS/MS.
LC/MS/MS analyses were performed using Thermo Fisher's LX4-TSQ Quantum Ultra system. This system consists of four Agilent binary high-performance liquid chromatography (HPLC) pumps and a TSQ Quantum Ultra triple quadruple MS/MS instrument. For each sample, 5 μL were injected onto an Atlantis T3 column (2.1 mm×150 mm, 3 μm particle size) from Waters. The mobile phase gradient pumped at 0.8 mL/min was used to elute the analytes from the column at 25° C. The elution started at 0% B increasing linearly to 25% B at 6.5 min, holding at 25% for 1 min, re-equilibrating to 10 min. Mobile phase A consisted of 0.1% formic acid in water. Mobile phase B consisted of 0.1% of formic acid in acetonitrile. Data was acquired in positive mode using a HESI interface. The operational parameters for the TSQ Quantum Ultra instrument were a spray voltage of 4000 V, capillary temperature of 380° C., vaporizer temperature 400° C., shealth gas 60 arbitrary units, Aux gas 20 arbitrary units, tube lens 85 and collision gas 1.2 mTorr. SRM chromatograms of kynurenine (Q1: 209.2>Q3:94.0) and internal standard (Q1: 215.3>Q3:98.2) were collected for 90 sec. The peak area was integrated by Xcalibur Quan software. The ratios between the kynurenine generated in the reaction and 2D6-Kynurenine spiked-in internal standard were used to generate percentage inhibition and IC50 values. Compounds were titrated and IC50's were calculated by 4 parameter sigmoidal curve fitting formula.
The biological activity data of selective compounds using the IDO1 human whole blood assay described above are summarized in the table below.

T1 sequence (P14902 whole entry): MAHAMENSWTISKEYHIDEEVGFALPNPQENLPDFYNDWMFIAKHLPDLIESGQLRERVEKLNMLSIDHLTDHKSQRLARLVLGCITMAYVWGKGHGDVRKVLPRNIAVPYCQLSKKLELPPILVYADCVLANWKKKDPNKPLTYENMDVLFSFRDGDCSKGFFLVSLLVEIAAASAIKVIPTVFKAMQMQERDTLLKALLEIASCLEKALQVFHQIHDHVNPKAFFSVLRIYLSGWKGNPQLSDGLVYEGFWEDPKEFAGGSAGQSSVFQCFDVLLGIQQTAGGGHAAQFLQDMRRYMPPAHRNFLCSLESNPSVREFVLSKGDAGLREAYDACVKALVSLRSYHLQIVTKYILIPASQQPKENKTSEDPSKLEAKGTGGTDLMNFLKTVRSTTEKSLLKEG

For the compound `Cc1cc(C(=O)NC23CC([C@@H](C)C(=O)Nc4ccc(F)cc4)(C2)C3)ccc1F` [Example 46, 4-fluoro-N-[3-[(1R)-2-(4-fluoroanilino)-1-methyl-2-oxo-ethyl]-1-bicyclo[1.1.l]pentanyl]-3-methyl-benzamide], the results for the IC50 in assay [1] and in assay [2] were 0.00212 µM and 0.139 µM, respectively.
In the case of `O=C(NC12CC(C3(C(=O)Nc4ccc(F)cc4)CC3)(C1)C2)c1ccc(Cl)c(Cl)c1` [Example 100, 3,4-Dichloro-N-(3-(1-((4-fluorophenyl)carbamoyl)cyclopropyl)bicyclo[1.1.1]pentan-1-yl)benzamide], the IC50 in assay [1] is 0.00335 µM; in assay [2] it was 0.454 µM.
In the case of `C[C@H](C(=O)Nc1ccc(F)cc1)C12CC(NC(=O)c3cc(Cl)ccc3F)(C1)C2` [Example 56, 5-chloro-2-fluoro-N-[3-[(1S)-2-(4-fluoroanilino)-1-methyl-2-oxo-ethyl]-1-bicyclo[1.1.1]pentanyl]benzamide], the half-maximal inhibitory concentration (IC50) in assay [1] amounted to 0.00251 µM; in assay [2], 0.328 µM.
Regarding `CC(C(=O)Nc1ccc(Cl)nc1)C12CC(NC(=O)c3ccc(Cl)c(Cl)c3)(C1)C2` (single isomer, unassigned) [Example 15, 3,4-dichloro-N-(3-(1-((6-chloropyridin-3-yl)amino)-1-oxopropan-2-yl)bicyclo[1.1.1]pentan-1-yl)benzamide], the 50% inhibitory concentration (IC50) in assay [1] came out at 0.00446 µM; in assay [2] it was 1.1 µM.
The matching figures for `CC(C(=O)Nc1ccc(F)cc1)C12CC(NC(=O)c3ccc(Cl)c(Cl)c3)(C1)C2` (single isomer, unassigned) [Example 8, 3,4-dichloro-N-(3-(1-((4-fluorophenyl)amino)-1-oxopropan-2-yl)bicyclo[1.1.1]pentan-1-yl)benzamide]: 0.0031 µM and 0.781 µM.
For `CC(C(=O)Nc1ccc(Cl)c(F)c1)C12CC(NC(=O)c3cccc(Cl)c3)(C1)C2` (single isomer, unassigned) [Example 11, 3-chloro-N-(3-(1-((4-chloro-3-fluorophenyl)amino)-1-oxopropan-2-yl)bicyclo[1.1.1]pentan-1-yl)benzamide], the results for the half-inhibitory concentration (IC50) in assay [1] and in assay [2] were 0.00157 µM and 0.525 µM, respectively.
For the compound `CC(C(=O)Nc1ccc(F)nc1)C12CC(NC(=O)c3ccc(Cl)c(Cl)c3)(C1)C2` (single isomer, unassigned) [Example 14, 3,4-dichloro-N-(3-(1-((6-fluoropyridin-3-yl)amino)-1-oxopropan-2-yl)bicyclo[1.1.1]pentan-1-yl)benzamide], the IC50 in assay [1] was 0.00616 µM; in assay [2], 0.406 µM.
Taken in the same sequence, the figures for `CC(C(=O)Nc1ccc(F)cc1)C12CC(NC(=O)c3cccc(Cl)c3)(C1)C2` (single isomer, unassigned) [Example 1, 3-Chloro-N-(3-(1-((4-fluorophenyl)amino)-1-oxopropan-2-yl)bicyclo[1.1.1]pentan-1-yl)benzamide] were 0.00305 µM and 0.113 µM.
For `CC(C(=O)Nc1ccc(Cl)nc1)C12CC(NC(=O)c3cccc(Cl)c3)(C1)C2` (single isomer, unassigned) [Example 17, 3-chloro-N-(3-(1-((6-chloropyridin-3-yl)amino)-1-oxopropan-2-yl)bicyclo[1.1.1]pentan-1-yl)benzamide], the IC50 was 0.00526 µM in assay [1] and 0.179 µM in assay [2].
The matching figures for `CC(C(=O)Nc1ccc(Cl)cc1)C12CC(NC(=O)c3cccc(Cl)c3)(C1)C2` (single isomer, unassigned) [Example 7, 3-Chloro-N-(3-(1-((4-chlorophenyl)amino)-1-oxopropan-2-yl)bicyclo [1.1.1]pentan-1-yl) Benzamide]: 0.00105 µM and 0.0482 µM.
Regarding `Cc1ccc(C(=O)NC23CC([C@@H](C)C(=O)Nc4ccc(F)cc4)(C2)C3)cc1Cl` [Example 36, 3-chloro-N-[3-[(1R)-2-(4-fluoroanilino)-1-methyl-2-oxo-ethyl]-1-bicyclo[1.1.1]pentanyl]-4-methyl-benzamide], the figures for the IC50 in assay [1] and in assay [2] were 0.00214 µM and 0.138 µM, respectively.

For the origin of these results see patent publication US11478461B2, “[1.1.1] bicyclo compounds as indoleamine 2,3-dioxygenase inhibitors” (Merck Sharp & Dohme Corp., priority 2018, dated 2022).
